Measured values: patent US7132547B2, “Preventives/remedies for urinary disturbance” (priority 2001, dated 2006)
pIC50: −log10 of the molar value.

Assays:
Hartley male guinea pigs = experiment: Effect on blood pressure in anesthetized guinea pigs; format: in vivo, guinea pig; details: tamsulosin 0.01 mg/kg, Example 20 0.1 mg/kg
Procedure: Hartley male guinea pigs (Slc) weighing 300 to 350 g was anesthetized with urethane (1.2 g/kg), and retained, a cervical region was incised to expose a left common carotid artery. A polyethylene tube filled with physiological saline containing heparin (10 U.I./ml) was inserted into an artery, and blood pressure was measured with a pressure transducer. A cannulae for administering test compound was inserted into a vein at an end of left hind leg, and a test compound dissolved in distilled water was administered therethrough at 0.5 mL/kg. The blood pressure was recorded at 20 Hz using an analogue data inputting apparatus (MP-100, BIOPAC Systems), and analyzed by analyzing software (AcqKnowledge 3.5.3, BIOPAC Systems). Example compound and tamsulosin were studied for a dose at which effects were recognized in the aforementioned test a (Pressure Flow Study), and an average blood pressure just before administration of test compound and an average blood pressure 15 minutes after administration were measured. Data were statistically treated by Paired t-test.

[1] = biological target: T1, human adrenaline α1A receptor (Homo sapiens, UniProt P35348); experiment: Measurement of α1A receptor binding inhibitory activity ([3H]-Prazosin binding to CHO-K1 membrane fraction); details: concentration reducing [3H]-Prazosin (2.5 nM) binding to the membrane fraction to 50%
T1 construct: expressed in transfected cells; membrane fraction
T1 sequence (P35348 1-466): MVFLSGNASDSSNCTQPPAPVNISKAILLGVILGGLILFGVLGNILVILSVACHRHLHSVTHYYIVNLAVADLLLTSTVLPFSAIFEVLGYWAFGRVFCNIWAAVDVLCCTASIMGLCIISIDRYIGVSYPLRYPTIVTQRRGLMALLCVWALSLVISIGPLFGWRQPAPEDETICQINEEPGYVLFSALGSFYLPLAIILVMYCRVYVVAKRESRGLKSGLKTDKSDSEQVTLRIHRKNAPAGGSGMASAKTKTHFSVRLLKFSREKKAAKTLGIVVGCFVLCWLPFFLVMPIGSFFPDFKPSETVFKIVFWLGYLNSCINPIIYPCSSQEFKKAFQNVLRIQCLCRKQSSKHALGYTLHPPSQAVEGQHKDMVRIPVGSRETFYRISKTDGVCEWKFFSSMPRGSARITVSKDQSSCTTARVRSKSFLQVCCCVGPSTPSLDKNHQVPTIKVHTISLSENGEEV
Procedure: b) Measurement of α1A Receptor Binding Inhibitory Activity
The following gene manipulation method was carried out according to the method described in a textbook (Miniatis et al., Molecular Cloning, Cold Spring Harbor Laboratory, 1989) or the method described in protocol attached to a reagent.
(i) Preparation of Expression Plasmid for Human Adrenaline α1A Receptor
An adrenaline α1A receptor gene was cloned from a human liver cDNA by a PCR method. A PCR reaction was performed with Gene Amp PCR System 9700 (Applied Biosystems) using 200 ng of a human liver cDNA library (TAKARA SHUZO Co., Ltd.) as a template and using TaKaRa Pyrobest DNA Polymerase (TAKARA SHUZO CO., Ltd) and adding each 50 pmol of a primer set 5′-[…]-3′ [SEQ ID No.: 1] and 5′-[…]-3[SEQ ID No.: 2] prepared making reference to a nucleotide sequence of an adrenaline α1A receptor gene which was reported by Hirasawa A. et al. (Biochem. Biophys. Res. Commun., 195, 902–909(1993)) (reaction condition: 45 cycles of 15 seconds at 94° C., and 3 minutes 30 seconds at 68° C.).
The obtained PCR fragment was digested with restriction enzymes Eco RI (TAKARA SHUZO Co. Ltd.) and Sal I. (TAKARA SHUZO Co. Ltd.), and agarose gel electrophoresis was performed to recover DNA fragments. The DNA fragments were mixed with an animal cell expression plasmid pMSR αneo (Administration No. A99–0013) which had been digested with Eco RI and Sal I, ligated with DNA Ligation Kit Ver. 2 (TAKARA SHUZO Co. Ltd.), and a competent cell of Esherichia coli JM109 was transformed to obtain a plasmid pMSR αneoA dreα1A.
(ii) Introduction of Plasmid for Expression of Human Adrenaline α1A Receptor into CHO-K1 Cell and Preparation of Membrane Fraction
CHO-K1 cells which had been subcultured in a 150 cm^2 culturing flask (Corning Coaster) using Ham F12 medium (Invitrogen) containing 10% fetal bovine serum (TRACE SCIENTIFIC) was peeled with 0.5 g/L trypsin-0.2 g/L EDTA(Invitrogen), cells were washed with D-PBS(−) (Invitrogen), centrifuged (1000 rpm, 5 min.), and suspended in D-PBS(−). […]

COc1ccccc1CCNCCCCCC(=O)c1cc2c3c(c1)CCN3C(=O)CC2.Cl [Example 20, 8-(6-[[2-(2-Methoxyphenyl)ethyl]amino]hexanoyl]-1,2,5,6-tetrahydro-4H-pyrrolo[3,2,1-ij]quinolin-4-one hydrochloride]
Blood pressure, after administration (Hartley male guinea pigs; average blood pressure 15 minutes after i.v. administration): 54.6 ± 2.8 mmHg
Blood pressure, before administration (Hartley male guinea pigs; average blood pressure just before i.v. administration): 53.5 ± 3.6 mmHg
pIC50 [1]: 6.78
